Reference: US20180042899A1, “Method of Treating Transplant Rejection and Autoimmune Diseases” (priority 2012, published 2018)
Read-outs that look alike come from different tables or passages of the source.

Columns and labels:
AHR (AHR^b isoform) = molecular target: T1, AHR (AHR^b isoform) (Mus musculus, UniProt P30561, M589L/N533S/P471L); experiment: Photoaffinity competitive ligand binding with radioligand 125Ibr2N3DpD in hepatic cytosol; parameters: species or system mouse (C57BL/6J)
T1 construct: from tissue; host or cells: liver of C57BL/6J mice (cytosol in A1; liver in vivo in A7)
T1 sequence (P11499 whole entry partner, one chain of several, canonical isoform): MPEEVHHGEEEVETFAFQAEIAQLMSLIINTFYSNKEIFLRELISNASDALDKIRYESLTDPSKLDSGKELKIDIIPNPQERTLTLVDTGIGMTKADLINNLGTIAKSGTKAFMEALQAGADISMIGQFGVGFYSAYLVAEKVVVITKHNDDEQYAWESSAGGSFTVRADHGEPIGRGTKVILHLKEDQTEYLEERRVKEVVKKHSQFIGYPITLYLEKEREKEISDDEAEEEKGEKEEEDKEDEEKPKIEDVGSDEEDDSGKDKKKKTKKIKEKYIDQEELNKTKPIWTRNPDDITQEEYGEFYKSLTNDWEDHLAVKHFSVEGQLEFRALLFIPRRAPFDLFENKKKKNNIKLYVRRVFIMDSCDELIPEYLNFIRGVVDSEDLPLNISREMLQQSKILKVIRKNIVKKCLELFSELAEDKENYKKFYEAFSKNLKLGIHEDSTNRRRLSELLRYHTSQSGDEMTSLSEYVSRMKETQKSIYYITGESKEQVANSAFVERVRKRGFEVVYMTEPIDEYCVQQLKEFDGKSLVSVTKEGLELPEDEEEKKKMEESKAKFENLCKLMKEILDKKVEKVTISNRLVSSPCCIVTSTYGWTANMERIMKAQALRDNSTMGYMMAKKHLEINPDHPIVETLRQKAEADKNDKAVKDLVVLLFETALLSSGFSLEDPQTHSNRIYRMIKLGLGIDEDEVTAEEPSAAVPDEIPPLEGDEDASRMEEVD

[1] = molecular target: murine AHR^d low affinity receptor (Mus musculus, UniProt P30561, A375V); experiment: EROD activity in AHR^d-15 cells (rat hepatoma BP8 expressing murine AHR^d)
Chain of murine AHR^d low affinity receptor (P34058 whole entry partner, one chain of several, canonical isoform): as the sequence (P11499 whole entry partner, one chain of several, canonical isoform) above

[2] = molecular target: T2, high affinity AHR isoform (Rattus norvegicus, UniProt P41738)
T2 sequence (P41738 10-853): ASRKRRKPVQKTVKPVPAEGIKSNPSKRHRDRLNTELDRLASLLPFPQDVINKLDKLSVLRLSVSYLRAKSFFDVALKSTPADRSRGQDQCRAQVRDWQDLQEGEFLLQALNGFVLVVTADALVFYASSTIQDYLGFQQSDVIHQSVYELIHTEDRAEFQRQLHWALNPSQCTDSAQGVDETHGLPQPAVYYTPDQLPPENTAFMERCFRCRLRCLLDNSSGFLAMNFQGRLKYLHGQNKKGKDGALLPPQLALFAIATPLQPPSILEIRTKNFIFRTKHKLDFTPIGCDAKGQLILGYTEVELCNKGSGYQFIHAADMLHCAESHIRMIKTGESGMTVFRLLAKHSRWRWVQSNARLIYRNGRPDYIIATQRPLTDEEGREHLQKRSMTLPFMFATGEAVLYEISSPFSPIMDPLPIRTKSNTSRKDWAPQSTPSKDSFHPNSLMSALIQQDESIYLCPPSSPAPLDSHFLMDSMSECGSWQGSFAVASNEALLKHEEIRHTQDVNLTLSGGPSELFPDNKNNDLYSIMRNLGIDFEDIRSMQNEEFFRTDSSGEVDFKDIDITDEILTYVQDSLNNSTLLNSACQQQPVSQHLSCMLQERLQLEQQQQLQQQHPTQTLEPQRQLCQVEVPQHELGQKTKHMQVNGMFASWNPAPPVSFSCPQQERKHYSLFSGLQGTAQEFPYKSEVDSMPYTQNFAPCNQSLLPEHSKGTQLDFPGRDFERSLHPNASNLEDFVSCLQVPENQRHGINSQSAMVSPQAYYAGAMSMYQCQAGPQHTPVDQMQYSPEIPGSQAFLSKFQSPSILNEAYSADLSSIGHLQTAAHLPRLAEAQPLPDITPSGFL

AHR^d [3] = molecular target: T3, AHR^d (Mus musculus, UniProt P30561, A375V); experiment: Hepatic microsomal EROD activity after oral dosing, DBA/2J mice; type: in vivo, mouse (DBA/2J); parameters: from tissue; host or cells: liver of DBA/2J mice dosed orally; conditions: oral SU5416 30, 80, 120 mg/kg; BNF 120 mg/kg, after 48 hours
T3 sequence (P11499 whole entry partner, one chain of several): as the sequence (P11499 whole entry partner, one chain of several, canonical isoform) above

EAE = conditions: mouse, in vivo; cited from earlier work
[4] = tested on: LPS-induced airway inflammation; conditions: mouse, in vivo; cited from earlier work
skin graft rejection = conditions: 2 doses of 50 mg/kg, 2 and 5 days after skin grafting
IDO = IDO mRNA in cultured splenocytes; type: cell-based, mouse; conditions: titrating doses, 4 hours
AHR [5] = experiment: Antagonism by CH223191 of DRE-driven luciferase activation
AHR^fxneo/fxneo mice [6] = experiment: In utero exposure, closure of ductus venosus (DV) in AHR hypomorph mice; conditions: single dose 110 mg/kg i.p. to dams at E18.5; AHR^fxneo/fxneo pups at 4 weeks
[7] = in vivo; cited from earlier work
naive T cells [8] = experiment: Naive T cells in Th17 conditions, IL-17 ELISA of supernatant; conditions: 3 days
naive T cells [9] = experiment: Naive CD4+ T cells with TGF-β, flow cytometry for FoxP3 and CD39; conditions: TGF-β 2 ng/ml with SU5416 250 nM, day 3
pDC/T cell coculture = experiment: pDC/T cell co-culture, IDO and FoxP3 mRNA; type: cell-based, mouse; conditions: 5 days; SU5416 500 nM, TCDD 10 nM
[10] = metastatic colorectal cancers; cited from earlier work
wild-type AHR (AHR^b) = molecular target: T4, wild-type AHR (AHR^b) (Mus musculus, UniProt P30561, M589L/N533S/P471L); experiment: DRE-luciferase in COS-1 cells transfected with wild-type mAHR
T4 sequence (P30561 10-805 P471L/N533S/M589L): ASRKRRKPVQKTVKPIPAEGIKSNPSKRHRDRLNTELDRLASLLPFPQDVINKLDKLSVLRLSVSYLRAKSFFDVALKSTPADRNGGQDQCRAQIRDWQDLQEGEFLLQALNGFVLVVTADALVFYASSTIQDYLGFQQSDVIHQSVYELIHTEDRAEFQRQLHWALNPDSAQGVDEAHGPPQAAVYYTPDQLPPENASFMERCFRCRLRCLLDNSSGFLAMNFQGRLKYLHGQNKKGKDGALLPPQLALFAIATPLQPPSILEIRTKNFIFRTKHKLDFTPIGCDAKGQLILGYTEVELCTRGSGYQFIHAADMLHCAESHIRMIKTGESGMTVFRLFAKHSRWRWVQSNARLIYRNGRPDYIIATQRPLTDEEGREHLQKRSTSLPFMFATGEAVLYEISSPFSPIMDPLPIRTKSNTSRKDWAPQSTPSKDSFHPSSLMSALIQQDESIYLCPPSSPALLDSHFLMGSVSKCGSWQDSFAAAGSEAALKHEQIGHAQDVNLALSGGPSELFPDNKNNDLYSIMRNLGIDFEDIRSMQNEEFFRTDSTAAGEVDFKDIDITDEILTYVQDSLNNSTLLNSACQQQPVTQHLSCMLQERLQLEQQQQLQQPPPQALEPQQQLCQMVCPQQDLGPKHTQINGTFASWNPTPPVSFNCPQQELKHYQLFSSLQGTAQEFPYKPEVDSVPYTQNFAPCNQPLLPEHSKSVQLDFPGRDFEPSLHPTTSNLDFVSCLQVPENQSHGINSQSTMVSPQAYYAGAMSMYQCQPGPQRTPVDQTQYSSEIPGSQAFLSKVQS

[11] = molecular target: T5, AHR A375V (valine point mutation, AHR^d type) (Mus musculus, UniProt P30561, A375V); experiment: DRE-luciferase in COS-1 cells transfected with mAHR-A375V; conditions: read-out: EC50, DRE-luciferase; A375V transfected COS-1 cells, 4 hours
T5 sequence (P30561 10-848 A375V): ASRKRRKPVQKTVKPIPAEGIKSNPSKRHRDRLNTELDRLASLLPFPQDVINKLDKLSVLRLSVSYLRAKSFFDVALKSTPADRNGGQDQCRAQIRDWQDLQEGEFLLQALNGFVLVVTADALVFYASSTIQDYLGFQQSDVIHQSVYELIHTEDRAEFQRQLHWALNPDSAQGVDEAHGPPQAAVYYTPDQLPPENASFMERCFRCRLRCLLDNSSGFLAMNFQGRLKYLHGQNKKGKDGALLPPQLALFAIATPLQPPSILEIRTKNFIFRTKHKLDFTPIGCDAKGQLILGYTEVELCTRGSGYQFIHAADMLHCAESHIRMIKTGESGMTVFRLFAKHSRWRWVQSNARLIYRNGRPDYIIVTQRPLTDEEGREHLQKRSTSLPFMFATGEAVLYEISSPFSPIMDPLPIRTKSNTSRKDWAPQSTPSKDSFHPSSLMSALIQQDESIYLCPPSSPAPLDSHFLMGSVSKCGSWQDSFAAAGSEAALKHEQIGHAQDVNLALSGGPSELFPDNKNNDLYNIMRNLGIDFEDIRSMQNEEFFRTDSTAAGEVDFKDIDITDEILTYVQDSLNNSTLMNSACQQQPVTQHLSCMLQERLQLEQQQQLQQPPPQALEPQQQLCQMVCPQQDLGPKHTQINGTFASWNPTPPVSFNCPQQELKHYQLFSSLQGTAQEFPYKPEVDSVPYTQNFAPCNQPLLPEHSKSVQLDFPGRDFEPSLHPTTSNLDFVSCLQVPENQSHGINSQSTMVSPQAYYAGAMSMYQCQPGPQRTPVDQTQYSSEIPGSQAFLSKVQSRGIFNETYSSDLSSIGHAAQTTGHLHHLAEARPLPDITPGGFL

AHR^b = AHR^b (Mus musculus, UniProt P30561, M589L/N533S/P471L); experiment: CYP1A1 mRNA (qPCR) in splenocytes of wild-type C57BL/6J mice
Chain of AHR^b (P11499 whole entry partner, one chain of several): as the sequence (P11499 whole entry partner, one chain of several, canonical isoform) above

AHR^d [12] = molecular target: T3, AHR^d; experiment: CYP1A1 mRNA (qPCR) in splenocytes of AHR^d congenic mice
AHR^fxneo/fxneo mice [13] = conditions: mouse, in vivo; cited from earlier work
AHR^d [14] = molecular target: T3, AHR^d; parameters: endogenous in cells; host or cells: primary splenocytes of AHR^d congenic mice; conditions: cited from earlier work
AHR [15] = tested on: AHR

Compound: c1ccc2cc3c(ccc4ccccc43)cc2c1 [1,2-Benzanthracene]
- IC50 (AHR (AHR^b isoform); C57BL/6J hepatic cytosol, 1 nM radioligand, read-out: IC50, competitive binding): 13.7 nM

Compound: O=c1cc(-c2ccccc2)oc2ccc3ccccc3c12 [BNF, β-naphthoflavone]
- IC50 (AHR (AHR^b isoform)): 2.8 nM
- EROD response in AHR^d-15 cells ([1]; doses as high as 10 uM): no response
- EROD response in 5L cell line [2]: strong response
- hepatic EROD activity (AHR^d [3]): dramatically decreased in vivo activity

Compound: O=Cc1c2[nH]c3ccccc3c2cc2[nH]c3ccccc3c12 [FICZ, formylindolo[3,2-b]carbazole]
- effect on EAE (EAE): aggravates this syndrome

Compound: Cc1cc(C)c(/C=C2\C(=O)Nc3ccccc32)[nH]1 [SU5416, 3-[(2,4-dimethylpyrrol-5-yl)methylidenyl]-indolin-2-one]
- effect on LPS-induced airway inflammation [4]: blocked LPS-induced airway inflammation
- skin graft survival (skin graft rejection): prolonged graft survival compared to the control group
- IDO mRNA induction (IDO): induced significant amounts of IDO mRNA
- inhibition of DRE activation by titrated CH223191 (AHR [5]): minimal inhibition
- pups with closed DV (AHR^fxneo/fxneo mice [6]): 13 of 22
- plasma half-life [7]: 30 min
- IL-17 protein in supernatant (naive T cells [8]; higher doses): did not see this effect
- IL-17 protein in supernatant (naive T cells [8]; low doses): small increase in IL-17 protein
- CD39 expression (naive T cells [9]): up regulated CD39 in the FoxP3^+ T cells
- FoxP3 protein expression by flow cytometry (naive T cells [9]): significantly enhanced the FoxP3 protein expression
- FoxP3 mRNA in pDC/T cell coculture (pDC/T cell coculture): generated
- IDO mRNA in pDC/T cell coculture (pDC/T cell coculture): generated
- tolerability in clinical trials [10]: well tolerated
- effect on EAE (EAE): abrogate EAE

Compound: Clc1cc2c(cc1Cl)Oc1cc(Cl)c(Cl)cc1O2 [TCDD, 2,3,7,8-tetrachlorodibenzo-p-dioxin]
- EC50 (wild-type AHR (AHR^b)): 0.73 nM
- IC50 (AHR (AHR^b isoform)): 1.5 nM
- shift of EROD dose curve between AHR^b (5L) and AHR^d-15 ([1]; to the left for the AHR^b isoform): 1.5 orders of magnitude
- EC50 [11]: 2.47 nM
- EC50 (AHR^b): 0.461 nM
- EC50 (AHR^d [12]): 1.89 nM
- total fold change of CYP1A1, AHR^b versus AHR^d (AHR^d [12]; splenocytes, qPCR, 4 hours): more CYP1A1 in AHR^b compared to AHR^d mice
- inhibition of DRE activation by titrated CH223191 (AHR [5]; 1 nM TCDD or 100 nM SU5416, 4 hours): inhibited
- closure of DV by in utero activation in hypomorphs (AHR^fxneo/fxneo mice [13]): successfully closed the DV
- FoxP3 mRNA in pDC/T cell coculture (pDC/T cell coculture): up regulation was also seen
- IDO mRNA in pDC/T cell coculture (pDC/T cell coculture): up regulation was also seen
- binding affinity of AHR^d relative to AHR^b (AHR^d [14]): one-fifteenth to one-twentieth
- effect on EAE (EAE): ameliorate the symptoms
- duration of luciferase (DRE) activity (AHR [15]): long duration DRE-binding
